Experimental data taken from patent US20050020643A1, “Pyridinyl amides and compositions thereof for use as fungicides” (priority 2002, published 2005).

Assays:
Type in all cases: in vivo
[1] = system: Erysiphe graminis f. sp. tritici; test: Test A: preventive control of wheat powdery mildew on wheat seedlings; parameters: concentration or dose not given beside the values; details: sprayed day before inoculation, rated after 7 days, rate not given
[2] = system: Phytophthora infestans; test: whole plant or invertebrate; details: for pest or weed control at 100 g/ha: Phytophthora infestans, in Solanum tuberosum, 120 h, read-out: Test F disease control rating; for Test F disease control rating: 100 g/ha on potato seedlings, sprayed day after inoculation
[3] = system: Plasmopara viticola; test: Test E: preventive control of grape downy mildew on grape seedlings; details: sprayed day before inoculation, rate not given
[4] = system: Phytophthora infestans; details: tomato (or potato) seedlings, sprayed day before inoculation; rate not given
[5] = system: Puccinia recondita; test: Test B: preventive control of wheat leaf rust on wheat seedlings; parameters: concentration or dose not given beside the values; details: sprayed day before inoculation, rate not given
[6] = system: Plasmopara viticola; test: Test G: curative control of grape downy mildew on grape seedlings (sprayed after inoculation); details: sprayed day after inoculation, rate not given
[7] = system: Pyricularia oryzae; details: rice seedlings, sprayed day before inoculation; rate not given

SMILES | Test A disease control rating [1] | pest or weed control at 100 g/ha [2] | Test E disease control rating [3] | Test D disease control rating [4] | Test B disease control rating [5] | Test G disease control rating [6] | Test F disease control rating [2] | Test C disease control rating [7]
O=C(NCc1ncc(I)cc1Cl)c1c(Cl)ccnc1Cl [Compound 12, N-[(3-chloro-5-iodo-2-pyridinyl)methyl]-2,4-dichloro-3-pyridinecarboxamide] | 0% | 98% | 59% | 100% | 0% | 63% |  | 
CC(NC(=O)c1c(Cl)ccnc1Cl)c1ncc(OC(F)F)cc1Cl (centres unmarked) [Compound 11] | 0% |  | 100% | 100% | 0% | 100% | 93% | 
CC(NC(=O)c1c(Cl)ccnc1Cl)c1ncc(F)cc1Cl (centres unmarked) [Compound 5] | 0% |  | 70% | 100% | 0% | 99% | 100% | 
O=C(NCc1ncc(Cl)cc1I)c1c(Cl)ccnc1Cl [Compound 8] | 0% |  | 100% | 100% | 0% | 36% | 100% | 
O=C(NCc1ncc(Cl)cc1Br)c1c(Cl)ccnc1Cl [Compound 6] | 0% |  | 70% | 100% | 0% | 99% | 100% | 
CC(NC(=O)c1c(Cl)ccnc1Cl)c1ncc(Br)cc1Br (centres unmarked) [Compound 7] | 0% |  | 100% | 100% | 45% | 100% | 100% | 
Cc1cc(Cl)c(C(=O)NC(C)c2ncc(Br)cc2Cl)c(Cl)n1 (centres unmarked) [Compound 13] | 0% |  | 100% | 100% | 68% | 100% | 100% | 
Cc1cc(Cl)c(C(=O)NCc2ncc(I)cc2Cl)c(Cl)n1 [Compound 16, N-[(3-chloro-5-iodo-2-pyridinyl)methyl]-2,4-dichloro-6-methyl-3-pyridinecarboxamide] | 0% | 83% | 100% | 100% | 32% | 95% |  | 
CC(NC(=O)c1c(Cl)ccnc1Cl)c1ncc(Br)cc1Cl (racemic) [Compound 2, N-[1-(5-bromo-3-chloro-2-pyridinyl)ethyl]-2,4-dichloro-3-pyridinecarboxamide] | 0% | 93% | 100% | 100% | 19% | 100% |  | 0%
Cc1cc(Cl)c(C(=O)NC(C)c2ncc(I)cc2Cl)c(Cl)n1 (centres unmarked) [Compound 15, N-[1-(3-chloro-5-iodo-2-pyridinyl)ethyl]-2,4-dichloro-6-methyl-3-pyridinecarboxamide] | 0% | 70% | 100% | 100% | 0% | 100% |  | 
O=C(NCc1ncc(Br)cc1Cl)c1c(Cl)ccnc1Cl [Compound 9, N-[(5-bromo-3-chloro-2-pyridinyl)methyl]-2,4-dichloro-3-pyridinecarboxamide] | 0% | 99% | 88% | 100% | 9% | 99% |  | 
Cc1cc(Cl)c(C(=O)NCc2ncc(Br)cc2Cl)c(Cl)n1 [Compound 14, N-[(5-bromo-3-chloro-2-pyridinyl)methyl]-2,4-dichloro-6-methyl-3-pyridinecarboxamide] | 0% | 98% | 100% | 100% | 41% | 100% |  | 
Cc1cnc(C(C)NC(=O)c2c(Cl)ccnc2Cl)c(C)c1 (centres unmarked) [Compound 10] | 0% |  | 57% | 99% | 0% | 0% | 0% | 
CC(NC(=O)c1c(Cl)ccnc1Cl)c1ncc(Cl)cc1Cl (racemic) [Compound 1, 2,4-Dichloro-N-[1-(3,5-dichloro-2-pyridinyl)ethyl]-3-pyridinecarboxamide] | 0% | 87% | 99% | 100% | 38% | 100% |  | 0%
O=C(NCc1ncc(Cl)cc1Cl)c1c(Cl)ccnc1Cl [Compound 4, 2,4-Dichloro-N-[(3,5-dichloro-2-pyridinyl)methyl]-3-pyridinecarboxamide] | 0% | 100% | 70% | 100% | 9% | 100% |  | 
CC(NC(=O)c1c(Cl)ccnc1Cl)c1ncc(I)cc1Cl (centres unmarked) [Compound 3, N-[1-(3-chloro-5-iodo-2-pyridinyl)ethyl]-2,4-dichloro-3-pyridinecarboxamide] | 0% | 88% | 95% | 100% | 19% | 100% |  | 
